Test in all cases: relative viability (nuclei count vs DMSO), 5 days (fraction); higher = more cells survive
Compound in the assay “AZD8055 + Luminespib”: COc1ccc(-c2ccc3c(N4CCOC[C@@H]4C)nc(N4CCOC[C@@H]4C)nc3n2)cc1CO [AZD8055] + CCNC(=O)c1noc(-c2cc(C(C)C)c(O)cc2O)c1-c1ccc(CN2CCOCC2)cc1 [Luminespib] (partner 0.01 µM)
The method in brief:
(§1)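 Lung cancer cell lines, seeded in 1536-well plates, were treated the following day by pin tool with a single drug or with five library-drug doses (not always all listed) in √10 steps on top of a fixed anchor-drug dose. Cells were fixed and nuclei stained in one step after 5 days, and nuclei were counted. Relative viability is the nuclei count for treated wells divided by that for vehicle wells, reported as medians of duplicate plates.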

Compound in the assay “AZD8055 + Lapatinib”: COc1ccc(-c2ccc3c(N4CCOC[C@@H]4C)nc(N4CCOC[C@@H]4C)nc3n2)cc1CO [AZD8055] + CS(=O)(=O)CCNCc1ccc(-c2ccc3ncnc(Nc4ccc(OCc5cccc(F)c5)c(Cl)c4)c3c2)o1 [Lapatinib] (partner 2 µM)
In short, it runs like this: as §1

Compound in the assay “AZD8055 + Decitabine”: COc1ccc(-c2ccc3c(N4CCOC[C@@H]4C)nc(N4CCOC[C@@H]4C)nc3n2)cc1CO [AZD8055] + Nc1ncn([C@H]2C[C@H](O)[C@@H](CO)O2)c(=O)n1 [Decitabine] (partner 2 µM)
The method in brief:
as §1

Compound in the assay “AZD8055 + Olaparib”: COc1ccc(-c2ccc3c(N4CCOC[C@@H]4C)nc(N4CCOC[C@@H]4C)nc3n2)cc1CO [AZD8055] + O=C(c1cc(Cc2n[nH]c(=O)c3ccccc23)ccc1F)N1CCN(C(=O)C2CC2)CC1 [Olaparib] (partner 8 µM)
In short, it runs like this: as §1

The values that follow come from the supplement of paper PMC10307832.

Consider NCI-H2085, for which the relative viability in the assay with AZD8055 + Luminespib (first compound 0.01 µM) was 0.447; in the assay with AZD8055 + Luminespib (first compound 0.03162 µM) it was 0.387; with AZD8055 + Luminespib (first compound 0.1 µM) it was 0.294; with AZD8055 + Luminespib (first compound 0.3162 µM), 0.21; with AZD8055 + Luminespib (first compound 1 µM) it was 0.281; in the assay with AZD8055 + Lapatinib (first compound 0.01 µM), 0.899. For the same cell line, the relative viability with AZD8055 + Lapatinib (first compound 0.03162 µM) amounted to 0.514; in the assay with AZD8055 + Lapatinib (first compound 0.1 µM) it was 0.384; in the assay with AZD8055 + Lapatinib (first compound 0.3162 µM) it was 0.334; with AZD8055 + Lapatinib (first compound 1 µM) it was 0.341; with AZD8055 + Decitabine (first compound 0.01 µM) it was 0.576; in the assay with AZD8055 + Decitabine (first compound 0.03162 µM), 0.512. Besides, the relative viability with AZD8055 + Decitabine (first compound 0.1 µM) came out at 0.379; with AZD8055 + Decitabine (first compound 0.3162 µM) it was 0.456; with AZD8055 + Decitabine (first compound 1 µM) it was 0.426; in the assay with AZD8055 + Olaparib (first compound 0.01 µM), 0.858; in the assay with AZD8055 + Olaparib (first compound 0.03162 µM), 0.822; with AZD8055 + Olaparib (first compound 0.1 µM), 0.553. Also, the relative viability with AZD8055 + Olaparib (first compound 0.3162 µM) amounted to 0.387; with AZD8055 + Olaparib (first compound 1 µM), 0.354.
Regarding NCI-H1395, the relative viability amounted to 0.669 with AZD8055 + Luminespib (first compound 0.01 µM); 0.379 in the assay with AZD8055 + Luminespib (first compound 0.03162 µM); 0.684 in the assay with AZD8055 + Luminespib (first compound 0.1 µM); 0.445 in the assay with AZD8055 + Luminespib (first compound 0.3162 µM); 0.36 with AZD8055 + Luminespib (first compound 1 µM); 0.939 with AZD8055 + Lapatinib (first compound 0.01 µM). Also, the relative viability with AZD8055 + Lapatinib (first compound 0.03162 µM) was determined as 0.776; with AZD8055 + Lapatinib (first compound 0.1 µM) it was 0.771; in the assay with AZD8055 + Lapatinib (first compound 0.3162 µM), 0.616; with AZD8055 + Lapatinib (first compound 1 µM), 0.462; with AZD8055 + Decitabine (first compound 0.01 µM), 0.767; with AZD8055 + Decitabine (first compound 0.03162 µM) it was 0.585. In addition, the relative viability in the assay with AZD8055 + Decitabine (first compound 0.1 µM) was 0.615; with AZD8055 + Decitabine (first compound 0.3162 µM) it was 0.419; with AZD8055 + Decitabine (first compound 1 µM), 0.506; with AZD8055 + Olaparib (first compound 0.01 µM), 0.479; in the assay with AZD8055 + Olaparib (first compound 0.03162 µM), 0.412; in the assay with AZD8055 + Olaparib (first compound 0.1 µM), 0.407. Besides, the relative viability with AZD8055 + Olaparib (first compound 0.3162 µM) came out at 0.358; with AZD8055 + Olaparib (first compound 1 µM), 0.432.
NCI-H1648: the relative viability was 0.422 with AZD8055 + Decitabine (first compound 0.01 µM); 0.504 in the assay with AZD8055 + Decitabine (first compound 0.03162 µM); 0.42 in the assay with AZD8055 + Decitabine (first compound 0.1 µM); 0.277 with AZD8055 + Decitabine (first compound 0.3162 µM); 0.261 in the assay with AZD8055 + Decitabine (first compound 1 µM); 0.658 in the assay with AZD8055 + Olaparib (first compound 0.01 µM). Besides, the relative viability was found to be 0.739 with AZD8055 + Olaparib (first compound 0.03162 µM), 0.561 with AZD8055 + Olaparib (first compound 0.1 µM), 0.239 with AZD8055 + Olaparib (first compound 0.3162 µM) and 0.287 with AZD8055 + Olaparib (first compound 1 µM).
On to NCI-H460, for which the relative viability is 0.03 in the assay with AZD8055 + Luminespib (first compound 0.01 µM); 0.029 with AZD8055 + Luminespib (first compound 0.03162 µM); 0.0182 with AZD8055 + Luminespib (first compound 0.1 µM); 0.0223 with AZD8055 + Luminespib (first compound 0.3162 µM); 0.0329 with AZD8055 + Luminespib (first compound 1 µM); 1.72 with AZD8055 + Lapatinib (first compound 0.01 µM). Also, the relative viability with AZD8055 + Lapatinib (first compound 0.03162 µM) worked out at 0.629; in the assay with AZD8055 + Lapatinib (first compound 0.1 µM), 0.43; in the assay with AZD8055 + Lapatinib (first compound 0.3162 µM) it was 0.137; with AZD8055 + Lapatinib (first compound 1 µM), 0.0984; in the assay with AZD8055 + Decitabine (first compound 0.01 µM) it was 0.573; with AZD8055 + Decitabine (first compound 0.03162 µM), 0.352. Moreover, the relative viability was determined as 0.353 with AZD8055 + Decitabine (first compound 0.1 µM); 0.246 with AZD8055 + Decitabine (first compound 0.3162 µM); 0.13 with AZD8055 + Decitabine (first compound 1 µM); 0.444 with AZD8055 + Olaparib (first compound 0.01 µM); 0.409 in the assay with AZD8055 + Olaparib (first compound 0.03162 µM); 0.371 with AZD8055 + Olaparib (first compound 0.1 µM). The values for the relative viability in the assay with AZD8055 + Olaparib (first compound 0.3162 µM) and with AZD8055 + Olaparib (first compound 1 µM) were 0.254 and 0.216, respectively.
Regarding A549, the relative viability was 0.801 with AZD8055 + Lapatinib (first compound 0.01 µM); 0.651 with AZD8055 + Lapatinib (first compound 0.03162 µM); 0.404 with AZD8055 + Lapatinib (first compound 0.1 µM); 0.307 with AZD8055 + Lapatinib (first compound 0.3162 µM); 0.122 in the assay with AZD8055 + Lapatinib (first compound 1 µM); 0.389 in the assay with AZD8055 + Decitabine (first compound 0.01 µM). Also, the relative viability with AZD8055 + Decitabine (first compound 0.03162 µM) was 0.101; with AZD8055 + Decitabine (first compound 0.1 µM), 0.184; with AZD8055 + Decitabine (first compound 0.3162 µM) it was 0.13; in the assay with AZD8055 + Decitabine (first compound 1 µM) it was 0.101; with AZD8055 + Olaparib (first compound 0.01 µM), 0.279; with AZD8055 + Olaparib (first compound 0.03162 µM) it was 0.359. For the same cell line, the relative viability with AZD8055 + Olaparib (first compound 0.1 µM) was 0.21; in the assay with AZD8055 + Olaparib (first compound 0.3162 µM), 0.142; in the assay with AZD8055 + Olaparib (first compound 1 µM), 0.0857.
